Patent US7510825B2, “Kits and methods for detection of apoptotic cells” (NST NeuroSurvival Technologies Ltd, priority 2000, dated 2009)

Tests used:
[1] = test system: L5178-S murine lymphoma tumors; test: Quantification of DDC uptake into lymphoma tumor after radiotherapy; assay type: in vivo, mice; conditions: DDC for 2 hours
Protocol: Extraction of DDC uptake compound from cytosolic extracts of organs or tissues for quantitative measurement of DDC uptake: • a. Excising the relevant organ from animals, that were previously injected with DDC. • b. Weighting the organs and homogenize using tissue homogenizer in a cold Buffer-Hepes • c. Following total homogenization, centrifuging the sample at 13,800 rpm for 20 min at 4° C. and transferring the supernatant to a new test tube. • d. Repeating step c and taking the supernatant for quantitative fluorescence evaluation. Alternatively, the supernatant can be stored at −80° C. until use. • e. Placing a sample of 100 ul of organ suspension into each of three wells of a black to microtiter plate. • f. Measuring the fluorescence intensity of DDC (excitation 360 nm, emission 535 nm) using a fluorescence plate reader.
Creating a calibration curve for the fluorescence plate reader using serial dilution of the DDC compound: 1:10, 1:20, 1:40, 1:80, 1:160, 1:320, 1:640, 1:1280.
Murine lymphoma model was established using DBA/2 mice injected subcutaneously with L5178-S murine lymphoma cells. Tumor treatment, by multiply fractionated X-irradiation (3 fractions of 6 Gy/day), started when the tumor reached in diameter 6-8 mm (approximately ten days after tumor implantation). At different time points (24, 48 or 72 hours) following irradiation, mice were injected with DDC for 2 hours. Tumors were harvested from control and radiation-treated animals and processed for quantitative analysis of DDC uptake into the tumor.

[2] = test system: Jurkat cells (T-cell leukemia); test: Binding of DDC and PI to Jurkat cells treated with CD95, confocal microscopy; assay type: cell-based, human; conditions: CD95 for 180 minutes; confocal microscope
Protocol: For microscopic analysis the concentration of cells should be within 1-2×10^7/ml. […] If fixation is needed, it should be performed after DDC staining. • 1. Adjusting the cells to 1-2×10^7/ml in buffer. • 2. Transferring 96 μl from the cell suspension to an eppendorf and staining the cells by adding 4 μl from the DDC solution. Incubating for 10-40 minutes at RT protected from light. • 3. A double labeling could be conducted with PI, if desired. In such a case, 1 μl is added from the PI solution. • 4, Placing the cell suspension on a glass slide. Covering the cells with a glass coverslip. Alternatively, for analyzing adherent cells, cells may grow directly on coverslip. Staining the cells by incubation with DDC (4 μl of DDC/96 μl buffer reaction) or 10-40 minutes and PI (1 μl). […] Observing the cells under fluorescent or confocal microscope equipped with the appropriate UV filter (excitation at 360-370 nm, band pass, and emission at 420 nm, barrier filter. Using a Triple filter (Hoechst/FITC/Texas Red) allows concomitant observation of both DDC and PI. Quantitative Assay for DDC Accumulation using Fluorescene Spectroscopy
Jurkat cells (T-cell leukemia) were treated with CD95 for 180 minutes and incubated with DDC followed by incubation with Propidium Iodide (PI) as detailed in DDC protocols IIIC. The cells were analyzed under fluorescent confocal microscope using a UV filter. […]

BCL1 bone marrow cells = test: Detection by DDC of apoptosis in BCL1 bone marrow cells following chemotherapy; assay type: in vivo, mice
Protocol: (§1) A. Administration of DDC in-vivo: Injection of 200 μl of DDC intravenously. Following 1-2 hours, animal is sacrificed, and the desired organ is placed in a test tube or on a small plate, suitable for liquid nitrogen freezing. The plate is then covered with an aluminum foil, and transferred to liquid nitrogen. Following 5-30 minutes the specimen is being frozen to −80° C. and kept at −80° C. for at least 16 hr. B. Analysis of the Specimen: • a. Whole organ imaging Ex-vivo whole organ fluorescence imaging may be carried out on freshly excised specimen, that can be analyzed under a stereomicroscope (such as Leica MZ FL III, Leica Switzerland). DDC may be visualized using 360cx and >420cm nm filter set. Emitted fluorescence can be imaged using appropriate camera and software, such as a Leica DC 300F Distal camera and images can be processed and analyzed by Leica QWin Lite software. • b. Histological analysis, from the frozen organ or tissue, 4 μm cryosections are prepared on slides. Analysis of the tissue sections can be performed using a fluorescence microscope with a UV filter characterized by excitation at 360-370 nm (band pass) and emission at 420 nm (barrier filter) In case that staining of the examined tissue is desired, the following procedures can be applied: […]

[3] = test system: tubular epithelial cells of the septic kidney; test: Focal uptake of DDC in the septic kidney (cecal ligature and perforation); assay type: in vivo, mice; conditions: 24 h after cecal ligature and puncture
Protocol: as §1

CN(C)c1cccc2c(S(=O)(=O)NC(CSSCC(NS(=O)(=O)c3cccc4c(N(C)C)cccc34)C(=O)O)C(=O)O)cccc12 (centres unmarked) [DDC]
DDC uptake into the tumor, times higher over the control mean values ([1]; 24 hours following X-irradiation (3 fractions of 6 Gy/day)): 3.68 times | DDC uptake into the tumor, times higher over the control mean values ([1]; 48 hours following X-irradiation (3 fractions of 6 Gy/day)): 4.69 times | DDC uptake into the tumor, times higher over the control mean values ([1]; 72 hours following X-irradiation (3 fractions of 6 Gy/day)): 6.74 times | cellular staining pattern in apoptotic cells [2]: accumulated within the cytoplasm of early and late apoptotic cells | fluorescent labeling of bone marrow cells (BCL1 bone marrow cells; 24 hr following Cyclophosphamide 300 mg/kg and Taxol 20 mg/kg): a significant number of apoptotic/necrotic cells are labeled | fluorescent labeling of bone marrow cells (BCL1 bone marrow cells; non-treated group): no fluorescent labeling | DDC staining versus TUNEL staining [3]: detected early apoptotic cells where TUNEL staining is still negative | identification of focal tubular cell injury ([3]; compared with H&E): clearly identified by DDC staining
